Assay results taken from ChEMBL document CHEMBL1201862, “PubChem BioAssay data set” (2004).
Calls of active or inactive are those of the source.

Tests used:
[1] = molecular target: T1, Corticotropin-releasing factor receptor 2/Corticotropin-releasing factor-binding protein (Homo sapiens, UniProt P24387+Q13324); assay: activators of CRF receptor 2 with binding protein – uHTS hits, confirmation (AID 602473); assay type: functional; conditions: read-out: EC50_Mean
T1 sequence (Q13324 whole entry): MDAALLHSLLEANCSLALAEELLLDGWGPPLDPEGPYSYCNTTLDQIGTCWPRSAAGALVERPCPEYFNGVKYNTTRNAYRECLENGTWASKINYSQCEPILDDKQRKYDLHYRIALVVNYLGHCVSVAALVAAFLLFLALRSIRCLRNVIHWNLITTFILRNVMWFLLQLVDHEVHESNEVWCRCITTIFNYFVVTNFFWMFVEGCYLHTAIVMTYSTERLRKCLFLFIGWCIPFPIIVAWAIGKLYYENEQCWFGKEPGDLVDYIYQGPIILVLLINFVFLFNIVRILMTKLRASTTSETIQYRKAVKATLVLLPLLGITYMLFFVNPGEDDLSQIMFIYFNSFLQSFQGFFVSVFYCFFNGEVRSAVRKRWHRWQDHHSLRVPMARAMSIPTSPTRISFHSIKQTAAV
T1 sequence (P24387 whole entry): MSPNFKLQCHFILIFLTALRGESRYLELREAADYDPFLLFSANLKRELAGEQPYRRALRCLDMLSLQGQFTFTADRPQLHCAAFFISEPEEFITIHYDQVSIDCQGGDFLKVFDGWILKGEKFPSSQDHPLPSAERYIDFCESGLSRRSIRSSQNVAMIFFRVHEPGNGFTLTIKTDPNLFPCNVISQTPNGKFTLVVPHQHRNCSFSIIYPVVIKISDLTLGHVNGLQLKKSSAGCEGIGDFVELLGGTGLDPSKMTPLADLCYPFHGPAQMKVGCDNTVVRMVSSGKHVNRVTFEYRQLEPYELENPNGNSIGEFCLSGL

[2] = molecular target: Glyceraldehyde-3-phosphate dehydrogenase (Homo sapiens, UniProt P04406)
Glyceraldehyde-3-phosphate dehydrogenase, sequence (P04406 whole entry): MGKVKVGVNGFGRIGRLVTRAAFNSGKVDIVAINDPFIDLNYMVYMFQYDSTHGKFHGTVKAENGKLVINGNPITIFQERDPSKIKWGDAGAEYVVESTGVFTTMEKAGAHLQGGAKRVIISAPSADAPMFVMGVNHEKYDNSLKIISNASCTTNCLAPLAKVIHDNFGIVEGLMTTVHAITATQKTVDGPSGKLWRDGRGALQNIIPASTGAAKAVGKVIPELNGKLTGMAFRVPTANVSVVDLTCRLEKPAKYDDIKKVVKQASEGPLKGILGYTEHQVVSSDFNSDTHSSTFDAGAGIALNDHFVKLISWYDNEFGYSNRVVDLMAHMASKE

[3] = molecular target: T1, Corticotropin-releasing factor receptor 2/Corticotropin-releasing factor-binding protein; assay: Dose Response confirmation of uHTS hits for small molecule antagonists of the CRF-binding protein and CRF-R2 receptor complex.; assay type: functional; conditions: read-out: IC50_Mean
[4] = molecular target: T2, Alkaline phosphatase, tissue-nonspecific isozyme (Homo sapiens, UniProt P05186); assay: human TNAP enzyme inhibitors, SAR follow-up, biochemical, luminescent, dose response (AID 1056)
T2 sequence (P05186 whole entry): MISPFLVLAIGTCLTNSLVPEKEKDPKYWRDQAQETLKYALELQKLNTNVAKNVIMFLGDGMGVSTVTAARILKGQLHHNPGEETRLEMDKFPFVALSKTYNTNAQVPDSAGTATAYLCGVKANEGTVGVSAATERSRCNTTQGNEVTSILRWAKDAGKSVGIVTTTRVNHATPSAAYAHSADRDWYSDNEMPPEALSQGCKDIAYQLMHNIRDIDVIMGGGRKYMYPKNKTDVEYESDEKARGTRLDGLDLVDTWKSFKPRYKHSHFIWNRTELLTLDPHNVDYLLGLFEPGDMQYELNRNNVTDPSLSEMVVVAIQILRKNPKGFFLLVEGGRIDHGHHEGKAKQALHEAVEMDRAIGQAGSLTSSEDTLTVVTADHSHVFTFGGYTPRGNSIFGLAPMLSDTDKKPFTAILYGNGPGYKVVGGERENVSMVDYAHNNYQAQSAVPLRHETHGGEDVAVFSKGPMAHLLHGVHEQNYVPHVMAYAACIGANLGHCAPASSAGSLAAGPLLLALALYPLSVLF

[5] = inhibitors of clade B AD8 Env fusion, dose response, cell-based, cherry-pick (AID 652062); assay type: functional;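 note: luciferase signal from cell-cell fusion driven by HIV-1 clade B AD8 Env; potency is for inhibitors of fusion seen as a drop in luminescence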
[6] = off-target signal loss in HeLa-CEM21 co-culture – HeLa F-luc CTL cells, cherry-picked, counter-screen for HIV-1 Env fusion inhibitor project, dose response (AID 652040); assay type: functional, cell-based;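 note: potency for signal decrease marking cytotoxic or nonspecific inhibition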
[7] = cells; assay type: functional, cell-based
[8] = Shn3 3'UTR reporter inhibitors, dose response, cell-based, Clone20 osteoblasts, firefly luciferase, cherry-picked (AID 624132); assay type: functional;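 note: firefly luciferase luminescence from reporter carrying the Shn3 3'UTR in osteoblasts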
[9] = cells; assay type: functional, cell-based; remark: listed apart in the source
[10] = molecular target: T3, Protein RecA (Mycobacterium tuberculosis, UniProt P9WHJ3); assay: Fluorescence Cell-Free Homogeneous Dose Retest to Identify Inhibitors of RecA-Intein Splicing Activity. [Related pubchem assays (depositor defined):AID2097, AID2223, AID489010, AID492950]; assay type: functional
T3 sequence (P9WHJ3 whole entry): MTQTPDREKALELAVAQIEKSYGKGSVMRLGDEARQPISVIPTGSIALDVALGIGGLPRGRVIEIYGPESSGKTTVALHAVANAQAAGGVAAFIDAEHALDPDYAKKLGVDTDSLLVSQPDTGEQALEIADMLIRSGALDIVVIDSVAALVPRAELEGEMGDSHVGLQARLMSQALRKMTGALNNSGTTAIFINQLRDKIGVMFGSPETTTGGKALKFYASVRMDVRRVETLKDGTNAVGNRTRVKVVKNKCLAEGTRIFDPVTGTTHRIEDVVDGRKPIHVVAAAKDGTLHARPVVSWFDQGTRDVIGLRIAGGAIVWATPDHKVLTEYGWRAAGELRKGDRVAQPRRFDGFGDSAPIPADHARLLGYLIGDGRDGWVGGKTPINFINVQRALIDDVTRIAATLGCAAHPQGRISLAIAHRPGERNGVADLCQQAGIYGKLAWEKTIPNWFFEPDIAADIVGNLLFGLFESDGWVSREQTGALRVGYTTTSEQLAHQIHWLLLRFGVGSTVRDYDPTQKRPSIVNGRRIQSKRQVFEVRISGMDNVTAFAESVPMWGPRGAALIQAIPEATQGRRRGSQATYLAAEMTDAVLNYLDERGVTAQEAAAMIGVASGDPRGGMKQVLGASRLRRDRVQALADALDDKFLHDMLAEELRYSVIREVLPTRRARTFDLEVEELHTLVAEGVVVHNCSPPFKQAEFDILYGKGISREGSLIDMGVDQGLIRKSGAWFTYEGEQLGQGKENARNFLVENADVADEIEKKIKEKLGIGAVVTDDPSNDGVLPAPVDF

[11] = control 3'UTR Renilla luciferase suppression, dose response, counter-screen for Shn3 inhibitor project, cell-based, Clone20-Shn3RL, cherry-picked (AID 624133); assay type: functional
[12] = HepG2 cell cytotoxicity, dose response, cytotoxicity control for Shn3 inhibitor project, CellTiter-Glo, cherry-picked (AID 624134); assay type: functional, cell-based
[13] = molecular target: T4, Replicative DNA helicase DnaB (Mycobacterium tuberculosis, UniProt P9WMR3); assay: DnaB intein splicing inhibitors, dose response, biochemical, cell-free fluorescence (AID 449749); assay type: functional
T4 sequence (P9WMR3 whole entry): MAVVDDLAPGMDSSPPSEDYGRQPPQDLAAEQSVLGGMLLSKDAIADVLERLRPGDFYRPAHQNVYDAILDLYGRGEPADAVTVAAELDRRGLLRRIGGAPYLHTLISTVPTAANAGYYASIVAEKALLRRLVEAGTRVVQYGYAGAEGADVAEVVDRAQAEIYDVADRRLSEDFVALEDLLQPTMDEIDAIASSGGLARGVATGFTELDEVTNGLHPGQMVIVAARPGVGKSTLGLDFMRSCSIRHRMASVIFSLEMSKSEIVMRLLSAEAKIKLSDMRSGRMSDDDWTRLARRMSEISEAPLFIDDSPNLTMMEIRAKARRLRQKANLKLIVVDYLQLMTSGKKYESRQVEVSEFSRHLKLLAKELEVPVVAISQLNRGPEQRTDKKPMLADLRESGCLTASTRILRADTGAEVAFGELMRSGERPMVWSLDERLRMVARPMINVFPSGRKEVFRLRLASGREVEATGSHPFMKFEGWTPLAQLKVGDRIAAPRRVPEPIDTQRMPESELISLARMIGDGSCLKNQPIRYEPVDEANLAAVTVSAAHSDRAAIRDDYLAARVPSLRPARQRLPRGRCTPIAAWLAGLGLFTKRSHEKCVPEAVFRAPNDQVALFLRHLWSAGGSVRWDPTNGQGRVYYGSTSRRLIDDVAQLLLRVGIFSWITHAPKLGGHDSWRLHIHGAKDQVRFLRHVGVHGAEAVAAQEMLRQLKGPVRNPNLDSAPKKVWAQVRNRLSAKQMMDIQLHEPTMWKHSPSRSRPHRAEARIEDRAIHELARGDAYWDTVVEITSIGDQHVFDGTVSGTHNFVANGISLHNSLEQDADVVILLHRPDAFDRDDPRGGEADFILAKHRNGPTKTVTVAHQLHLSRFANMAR

[14] = intracellular Trypanosoma cruzi inhibitors in host cells – cell-based, plate reader, cherry-pick samples, set 3, dose response (AID 651818); assay type: functional;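 note: compounds incubated with infected cells for about four days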
[15] = molecular target: Paired box protein Pax-8 (Homo sapiens, UniProt Q06710); assay: inhibitors of PAX8-driven TPO luciferase reporter, dose response, RMG-I cells, cherry-pick (AID 687027); assay type: functional, cell-based;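 note: luciferase reporter driven by Pax8 target thyroperoxidase promoter measured by SteadyGlo luminescence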
Paired box protein Pax-8, sequence (Q06710 whole entry): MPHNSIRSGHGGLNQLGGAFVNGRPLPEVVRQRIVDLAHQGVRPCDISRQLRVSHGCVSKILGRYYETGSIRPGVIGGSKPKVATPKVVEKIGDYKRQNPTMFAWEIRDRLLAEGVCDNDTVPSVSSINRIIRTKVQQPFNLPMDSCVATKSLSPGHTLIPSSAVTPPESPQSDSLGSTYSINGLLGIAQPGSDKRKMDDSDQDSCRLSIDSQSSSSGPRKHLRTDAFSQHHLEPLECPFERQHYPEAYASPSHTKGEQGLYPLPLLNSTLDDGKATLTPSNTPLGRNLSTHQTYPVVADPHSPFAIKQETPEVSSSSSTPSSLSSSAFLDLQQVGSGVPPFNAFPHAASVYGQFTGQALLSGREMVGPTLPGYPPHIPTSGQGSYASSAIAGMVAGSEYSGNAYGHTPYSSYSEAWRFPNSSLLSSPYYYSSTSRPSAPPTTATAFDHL

| SMILES | IC50 [2] | IC50 [4] | AC50 [14] | other results |
| --- | --- | --- | --- | --- |
| CCCSc1nnc(NC(C)=O)[nH]1 | > 10 µM (inconclusive) | 0.449 µM (active) |  | EC50 [1]: > 53 µM (inactive); IC50 [3]: > 47.1 µM (inactive) |
| CCCn1c(=S)[nH]c2cc(C(=O)N3CCCC(C(=O)OCC)C3)ccc2c1=O (centres undefined) |  |  |  | AC50 [5]: 23.2 µM (active); AC50 [6]: > 70 µM (inactive) |
| c1cncc(Cn2ccnc2)c1 | > 100 µM (not active) | > 100 µM (inactive) |  |  |
| O=C1C(Cl)=C(N2CCN(c3ncccn3)CC2)C(=O)N1c1cccc(C(F)(F)F)c1 | > 50 µM (inconclusive) |  |  |  |
| COc1ccc(OC)c(S(=O)(=O)Nc2ccc[nH]c2=O)c1 | > 100 µM (not active) | 6.32 µM (active) |  |  |
| COc1ccccc1-c1cc(C(F)(F)F)nc(S(=O)(=O)CCCC(=O)N2CCCCC2C)n1 (centres undefined) |  |  |  | EC50 [7]: > 350 µM (not active); AC50 [8]: 2.65 µM (active); EC50 [9]: > 350 µM (not active); EC50 [10]: 3.11 µM (active); AC50 [11]: 8.84 µM (active); AC50 [12]: 25.7 µM (active); AC50 [13]: 1.97 µM (active) |
| CC(=O)Nc1nnc(SCCc2ccccc2)[nH]1 | > 100 µM (not active) | > 100 µM (inactive) |  |  |
| C[C@@H]1CCCCO[C@H](CN(C)Cc2ccc(C(F)(F)F)cc2)[C@@H](C)CN([C@H](C)CO)C(=O)c2cc(NC(=O)Nc3ccccc3)ccc2O1 |  |  | 4.7 µM (active) |  |
| C[C@H]1CN([C@@H](C)CO)C(=O)c2cc(NC(=O)Nc3cccc4ccccc34)ccc2O[C@H]1CN(C)Cc1ccc(Cl)c(Cl)c1 |  |  | 5.7 µM (active) |  |
| C[C@@H]1CCCCO[C@@H](CN(C)Cc2ccc(C(F)(F)F)cc2)[C@@H](C)CN([C@H](C)CO)C(=O)c2cc(NC(=O)Nc3ccc(F)cc3)ccc2O1 |  |  | 6.87 µM (active) |  |
| C[C@@H]1CN([C@H](C)CO)C(=O)Cc2cc(NC(=O)Nc3ccc(F)cc3)ccc2O[C@@H]1CN(C)Cc1ccc(C(=O)Nc2ccccc2N)cc1 |  |  | 2.04 µM (active) |  |
| COc1ccc(S(=O)(=O)Nc2ccc3c(c2)C(=O)N([C@@H](C)CO)C[C@H](C)[C@H](CN(C)Cc2ccc(Oc4ccccc4)cc2)O3)cc1 |  |  | 1.94 µM (active) |  |
| C[C@@H]1CCCCO[C@@H](CN(C)C(=O)NC2CCCCC2)[C@@H](C)CN([C@H](C)CO)C(=O)c2cc(NC(=O)Nc3ccc(C(F)(F)F)cc3)ccc2O1 |  |  | 4.12 µM (active) |  |
| C[C@@H]1CN([C@@H](C)CO)C(=O)c2cccc(NC(=O)c3nc4ccccc4s3)c2O[C@H]1CN(C)Cc1ccc(-c2ccccc2)cc1 |  |  | 3.59 µM (active) |  |
| Cc1cccc(S(=O)(=O)N2CC[C@@H]3[C@H](CO)Nc4ccc(C5=CCCCC5)cc4[C@@H]32)c1 |  |  |  | AC50 [15]: 10.9 µM (active) |
| O=C(C[C@@H]1CC[C@@H]2[C@H](COC[C@H](O)CN2S(=O)(=O)c2cccc(Cl)c2)O1)Nc1ccc(-c2ccccc2)cc1 |  |  |  | AC50 [15]: 9.87 µM (active) |
| C[C@@H]1CCCCO[C@H](CN(C)Cc2ccncc2)[C@H](C)CN([C@@H](C)CO)C(=O)c2cc(NC(=O)Nc3ccc(C(F)(F)F)cc3)ccc2O1 |  |  |  | AC50 [15]: 13.6 µM (active) |
| c1cncc(-c2nccs2)c1 | > 100 µM (not active) | > 100 µM (inactive) |  |  |
| O=C(c1[nH]nc2c1COc1ccccc1-2)N1CCCC1 | > 100 µM (not active) | 0.289 µM (active) |  |  |
